Test system: naive CD4+CD25− T cells
Test: In vitro induction of iTregs by DCreg with cytokine blockade
Format: cell-based, mice
Conditions: blockade during co-culture (stage 1)
Experimental: In vitro T cell priming assays. To generate CD4^+CD25^−Foxp3^+ cells in vitro, Naive CD11c^+ dendritic cells (2×10^5) were cultured in 6-well, and stimulated with pVAX-Derp1 (10 μg/ml) plus Derp1 peotein (10 μg/ml) in the present of anti-IL10 or TGF-β for 48 hrs. Three groups of dendritic cells pretreated were added to culture medium with naive CD4^+CD25^− T cells (1×10^6) in RPMI 1640 each 48 hrs for 3 times. And then GFP expression in CD4^+CD25^− T cells were analyzed by FACS. To check the roles of cytokines during DCreg induce iTregs, we co-cultured CD11c^+ DC pretreated with pVAX-Derp1 (10 μg/ml) plus Derp1 peotein (10 μg/ml) with naive T cells, synchronously, plus anti-IL-10, anti-TGF-β or TGF-β receptor inhibitor, SB-525334 (14.3 nM) each 48 hrs for 3 times. […]
As reported, blockade of TGF-β and IL-10 could demolish the development and suppressive function of iTregs. […] The roles of TGF-β and IL-10 were detected during the induction of iTregs by DCreg in vitro. GFP expression in CD4^+CD25^− T cells was detected after 72 hrs of co-culture with CD11C^+ DCreg 3 times each two days in the presence of anti-IL-10 or anti-TGF-β as stage 1 in FIG. 13A. […]

Cc1cccc(-c2[nH]c(C(C)(C)C)nc2-c2ccc3nccnc3c2)n1 [SB-525334]
generation of CD4+CD25−GFP+ iTregs by DCreg: could decrease the iTreg induction

From patent US20150044244A1, “COMBINED FACILITATOR, ANTIGEN AND DNA VACCINE FOR PREVENTING AND TREATING AUTOIMMUNE DISEASES” (BEIJING ADVANCCINE BIOTECHNOLOGY CO. LTD., priority 2011, published 2015)
